Values quoted from earlier work in US20250090693A1, “BIOCOMPATIBLE COMPOSITION FOR LABELING TARGET LESION, AND PREPARATION METHOD THEREFOR” (NATIONAL CANCER CENTER, priority 2022, published 2025).

Question: Which clinical safety (18 breast cancer patients (T. Kitai, et al., Breast Cancer, 12:211-215, 2005)) does the source give for `CC1(C)C(/C=C/C=C/C=C/C=C2\N(CCCCS(=O)(=O)O)c3ccc4ccccc4c3C2(C)C)=[N+](CCCCS(=O)(=O)[O-])c2ccc3ccccc3c21` [indocyanine green (ICG), indocyanine green] here?
Answer: safely used clinically

Question: What about the “time after injection until decomposed and disappearing or excreted through urine and feces” value (injected into the human body) of the same molecule?
Answer: about an hour
